In US9896445B2, “Heterocyclic inhibitors of ERK1 and ERK2 and their use in the treatment of cancer” (Asana Biosciences, LLC, priority 2015, dated 2018):

Columns and labels:
ERK1 = target: T1, ERK1 (Homo sapiens, UniProt P27361); test: ERK1 HTRF (biochemical) assay
T1 construct: purchased Jubilant Biosys
Procedure: ERK1 and ERK2 HTRF (Biochemical) Assays
These assays employed a homogeneous time resolved fluorescence (HTRF) technique. […] The plate was incubated at room temperature for 60 min with shaking. […] The IC50 values (half maximal inhibitory concentration values) were subsequently determined using a sigmoidal dose-response curve (variable slope) in GraphPad Prism® 5 software.

ERK2 = target: T2, ERK2 (Homo sapiens, UniProt P28482); test: ERK2 HTRF (biochemical) assay
T2 construct: purchased Jubilant Biosys
T2 sequence (P28482 whole entry): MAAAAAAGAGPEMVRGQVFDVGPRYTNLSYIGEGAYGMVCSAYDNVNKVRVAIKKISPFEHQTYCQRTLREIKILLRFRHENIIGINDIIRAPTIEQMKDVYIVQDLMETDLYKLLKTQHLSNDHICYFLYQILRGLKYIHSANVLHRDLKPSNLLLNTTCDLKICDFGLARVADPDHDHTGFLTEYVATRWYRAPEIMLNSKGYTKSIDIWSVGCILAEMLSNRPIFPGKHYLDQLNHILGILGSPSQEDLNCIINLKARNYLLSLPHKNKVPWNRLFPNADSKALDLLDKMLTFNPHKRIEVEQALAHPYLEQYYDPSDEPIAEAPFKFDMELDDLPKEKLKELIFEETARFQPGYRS
Method in brief: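 Readout was time-resolved FRET between europium anti-phospho-MBP and streptavidin-APC after a 60-min room-temperature kinase step. That step used ERK2 (25 nM in enzyme mix), biotinylated MBP peptide (1 uM) and ATP (24 uM) from the substrate mix, in pH 7.5 Tris buffer.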

T1 sequence (P27361 whole entry): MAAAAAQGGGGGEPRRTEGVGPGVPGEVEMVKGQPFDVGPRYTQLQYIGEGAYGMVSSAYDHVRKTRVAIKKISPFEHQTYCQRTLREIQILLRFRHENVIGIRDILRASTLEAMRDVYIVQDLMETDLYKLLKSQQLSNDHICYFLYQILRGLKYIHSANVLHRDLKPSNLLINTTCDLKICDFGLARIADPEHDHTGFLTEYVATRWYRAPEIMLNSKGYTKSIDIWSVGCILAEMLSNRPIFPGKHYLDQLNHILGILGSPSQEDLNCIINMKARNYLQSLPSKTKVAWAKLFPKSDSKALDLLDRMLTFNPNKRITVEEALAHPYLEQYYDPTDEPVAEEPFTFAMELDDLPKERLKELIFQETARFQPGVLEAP

Structure (SMILES) | IC50 (ERK1; HTRF) [nM] | IC50 (ERK2; HTRF) [nM] | IC50 (ERK1; HTRF biochemical assay) [nM] | IC50 (ERK2; HTRF biochemical assay) [nM]
Cc1cnc(NC2CCOCC2)nc1-n1cnc(C(=O)N[C@@H](CN)c2cc(F)cc(Cl)c2)c1 [Example 276, (R)-N-(2-amino-1-(3-chloro-5-fluoro-phenyl)ethyl)-1-(5-methyl-2-((tetrahydro-2H-pyran-4-yl)amino)-pyrimidin-4-yl)-1H-imidazole-4-carboxamide] | < 50 | ≤ 50 | – | –
Cc1cnc(NC2CCOCC2)nc1-n1cnc(C(=O)NCc2ccccc2CCO)c1 [Compound 94, N-(2-(2-hydroxyethyl)benzyl)-1-(5-methyl-2-((tetrahydro-2H-pyran-4-yl)amino)pyrimidin-4-yl)-1H-imidazole-4-carboxamide] | < 50 | ≤ 50 | – | –
Cc1cnc(Nc2ccc3c(c2)OCCO3)nc1-n1ccc(C(=O)NC(CO)c2ccccc2)c1 (stereo not drawn) [Compound 131, 1-(2-((2,3-dihydrobenzo[b] [1,4]dioxin-6-yl)-amino)-5-methyl-pyrimidin-4-yl)-N-(2-hydroxy-1-phenylethyl)-1H-pyrrole-3-carboxamide] | < 50 | ≤ 50 | – | –
Cc1cnc(Nc2ccc3c(c2)OCO3)nc1-n1ccc(C(=O)NC(CO)c2cccc(Cl)c2F)c1 (stereo not drawn) [Compound 70, 1-(2-(benzo[d][1,3]dioxol-5-ylamino)-5-methylpyrimidin-4-yl)-N-(1-(3-chloro-2-fluorophenyl)-2-hydroxyethyl)-1H-pyrrole-3-carboxamide] | < 50 | ≤ 50 | – | –
Cc1cnc(Nc2ccc3c(c2)CCCO3)nc1-n1ccc(C(=O)NC(CO)c2ccccc2)c1 (stereo not drawn) [Compound 173, 1-(2-(chroman-6-ylamino)-5-methyl-pyrimidin-4-yl)-N-(2-hydroxy-1-phenylethyl)-1H-pyrrole-3-carboxamide] | < 50 | ≤ 50 | – | –
Cc1cnc(NC2CCOCC2)nc1-n1cnc(C(=O)NCc2sccc2CN)c1 [Example 294, N-((3-(amino-methyl)thiophen-2-yl)methyl)-1-(5-methyl-2-((tetrahydro-2H-pyran-4-yl)amino)-pyrimidin-4-yl)-1H-imidazole-4-carboxamide] | < 50 | ≤ 50 | – | –
O=C(NC(CO)c1cccc(Cl)c1)c1cn(-c2ccnc(Nc3ccc4c(c3)CCO4)c2)cn1 (stereo not drawn) [Compound 163, N-(1-(3-chlorophenyl)-2-hydroxyethyl)-1-(2-((2,3-dihydrobenzofuran-5-yl)amino)pyridin-4-yl)-1H-imidazole-4-carboxamide] | < 50 | ≤ 50 | – | –
Cc1cnc(NC2CCOC2)nc1-n1ccc(C(=O)NC(CO)c2cccc(Cl)c2)c1 (stereo not drawn) [Compound 123, N-(1-(3-chlorophenyl)-2-hydroxyethyl)-1-(5-methyl-2-((tetrahydrofuran-3-yl)amino)pyrimidin-4-yl)-1H-pyrrole-3-carboxamide] | < 50 | ≤ 50 | – | –
Cc1cnc(NC2CCOCC2)nc1-n1cnc(C(=O)NCc2nc(Cl)sc2C)c1 [Example 328, N-((2-chloro-5-methylthiazol-4-yl)methyl)-1-(5-methyl-2-((tetrahydro-2H-pyran-4-yl)amino)-pyrimidin-4-yl)-1H-imidazole-4-carboxamide] | – | – | < 50 | ≤ 50
CNCCNC[C@@H](NC(=O)c1cn(-c2nc(NC3CCOCC3)ncc2C)cn1)c1cccc(Cl)c1 [Example 345, ((S)-N-(1-(3-chlorophenyl)-2-((2-(methylamino)ethyl)amino)ethyl)-1-(5-methyl-2-((tetrahydro-2H-pyran-4-yl)amino)-pyrimidin-4-yl)-1H-imidazole-4-carboxamide2,2,2-trifluoroacetate] | – | – | < 50 | ≤ 50
CC(=O)OCc1c(Cl)cccc1CNC(=O)c1cn(-c2nc(N[C@H]3CCOC3)ncc2C)cn1 [Example 342, (S)-2-chloro-6-((1-(5-methyl-2-((tetrahydrofuran-3-yl)amino)pyrimidin-4-yl)-1H-imidazole-4-carboxamido)-methyl)benzyl acetate] | – | – | < 50 | ≤ 50
Cc1cnc(NC2CCOCC2)nc1-n1cnc(C(=O)NCc2cccc(Cl)c2CCO)c1 [Example 334, N-(3-chloro-2-hydroxyethylbenzyl)-1-(5-methyl-2-((tetrahydro-2H-pyran-4-yl)amino)-pyrimidin-4-yl)-1H-imidazole-4-carboxamide] | – | – | < 50 | ≤ 50
CC[C@@H](CO)Nc1ncc(C)c(-n2ccc(C(=O)N[C@@H](CO)c3cccc(Cl)c3)c2)n1 [Compound 218, N-((R)-1-(3-chlorophenyl)-2-hydroxyethyl)-1-(2-(((S)-1-hydroxy-butan-2-yl)amino)-5-methylpyrimidin-4-yl)-1H-pyrrole-3-carboxamide] | 100 to 500 | 500 to 2500 | – | –
C#Cc1cccc(Nc2nccc(-n3cc(NC(=O)N[C@H](CO)c4cccc(Cl)c4)cn3)n2)c1 [Compound 38, (S)-1-(1-(3-chlorophenyl)-2-hydroxyethyl)-3-(1-(2-((3-ethynyl-phenyl)amino)pyrimidin-4-yl)-1H-pyrazol-4-yl)urea] | < 50 | ≤ 50 | – | –

The next lines start with the values.

IC50 (ERK1; HTRF) [nM] | IC50 (ERK2; HTRF) [nM] | IC50 (ERK1; HTRF biochemical assay) [nM] | IC50 (ERK2; HTRF biochemical assay) [nM] | Structure (SMILES)
< 50 | ≤ 50 | – | – | Cc1cnc(Nc2ccc(F)cc2Cl)cc1-n1ccc(C(=O)NC(CO)c2cccc(Cl)c2)c1 (stereo not drawn) [Compound 91, 1-(2-((2-chloro-4-fluorophenyl)amino)-5-methylpyridin-4-yl)-N-(1-(3-chlorophenyl)-2-hydroxyethyl)-1H-pyrrole-3-carboxamide]
< 50 | ≤ 50 | – | – | Cc1cnc(Nc2ccc(F)cc2Cl)nc1-n1ccc(C(=O)NC(CO)c2ccccc2)c1 (stereo not drawn) [Compound 32, 1-(2-((2-chloro-4-fluorophenyl)amino)-5-methyl-pyrimidin-4-yl)-N-(2-hydroxy-1-phenylethyl)-1H-pyrrole-3-carboxamide]
< 50 | ≤ 50 | – | – | O=C(NC(CO)c1cccc(Cl)c1)c1ccn(-c2cc(Nc3ccccc3)ncc2Cl)c1 (stereo not drawn) [Compound 124, 1-(5-chloro-2-(phenylamino)pyridin-4-yl)-N-(1-(3-chlorophenyl)-2-hydroxyethyl)-1H-pyrrole-3-carboxamide]
50 to 100 | ≤ 50 | – | – | Cc1cnc(Nc2ccc(C3CCNCC3)cc2)nc1-n1ccc(C(=O)NC(CO)c2cccc(Cl)c2)c1 (stereo not drawn) [Compound 215, N-(1-(3-chlorophenyl)-2-hydroxyethyl)-1-(5-methyl-2-((4-(piperidin-4-yl)phenyl)amino)pyrimidin-4-yl)-1H-pyrrole-3-carboxamide]
< 50 | ≤ 50 | – | – | CC(=O)NCC(NC(=O)c1ccn(-c2cc(Nc3ccc(F)cc3)ncc2C)c1)c1ccccc1 (stereo not drawn) [Compound 135, N-(2-acetamido-1-phenylethyl)-1-(2-((4-fluorophenyl)-amino)-5-methyl-pyridin-4-yl)-1H-pyrrole-3-carboxamide]
50 to 100 | ≤ 50 | – | – | Cc1cnc(Nc2ccc3c(c2)OC(C)(C)O3)nc1-n1ccc(C(=O)NC(CO)c2ccccc2)c1 (stereo not drawn) [Compound 95, 1-(2-((2,2-dimethylbenzo[d] [1,3]dioxol-5-yl)-amino)-5-methyl-pyrimidin-4-yl)-N-(2-hydroxy-1-phenylethyl)-1H-pyrrole-3-carboxamide]
< 50 | ≤ 50 | – | – | Cc1cnc(Nc2ccc(F)cc2Cl)nc1-n1ccc(C(=O)NC(CO)c2cccc(Cl)c2)c1 (stereo not drawn) [Compound 31, 1-(2-((2-chloro-4-fluorophenyl)amino)-5-methyl-pyrimidin-4-yl)-N-(1-(3-chlorophenyl)-2-hydroxyethyl)-1H-pyrrole-3-carboxamide]
